Reference: patent publication US12637453B2, “Pyrazolopyridine inhibitors of c-Jun-n-Terminal kinases and uses thereof” (Dana-Farber Cancer Institute, Inc., priority 2019, dated 2026)

What was measured:
Assay type in all cases: biochemical
JNK1 = JNK1 (Homo sapiens, UniProt P45983); assay: IC50 assay for JNK kinase inhibition, JNK1
JNK2 = JNK2 (Homo sapiens, UniProt P45984); assay: IC50 assay for JNK kinase inhibition, JNK2
JNK3 = JNK3 (Homo sapiens, UniProt P53779); assay: IC50 assay for JNK kinase inhibition, JNK3
Sequence of JNK3 (P53779 whole entry): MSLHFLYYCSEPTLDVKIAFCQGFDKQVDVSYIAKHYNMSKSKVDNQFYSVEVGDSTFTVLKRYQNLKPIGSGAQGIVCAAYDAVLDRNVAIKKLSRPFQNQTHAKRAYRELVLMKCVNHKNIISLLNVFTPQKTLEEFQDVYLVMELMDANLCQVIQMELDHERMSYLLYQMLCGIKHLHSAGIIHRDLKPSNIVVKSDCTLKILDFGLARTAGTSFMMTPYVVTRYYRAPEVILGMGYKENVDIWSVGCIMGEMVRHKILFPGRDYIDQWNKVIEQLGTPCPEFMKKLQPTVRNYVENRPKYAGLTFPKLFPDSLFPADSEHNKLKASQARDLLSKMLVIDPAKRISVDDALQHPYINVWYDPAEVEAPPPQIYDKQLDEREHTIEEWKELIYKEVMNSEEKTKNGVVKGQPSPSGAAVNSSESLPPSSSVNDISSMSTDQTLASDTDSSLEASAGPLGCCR

Sequence of JNK2 (P45984 whole entry): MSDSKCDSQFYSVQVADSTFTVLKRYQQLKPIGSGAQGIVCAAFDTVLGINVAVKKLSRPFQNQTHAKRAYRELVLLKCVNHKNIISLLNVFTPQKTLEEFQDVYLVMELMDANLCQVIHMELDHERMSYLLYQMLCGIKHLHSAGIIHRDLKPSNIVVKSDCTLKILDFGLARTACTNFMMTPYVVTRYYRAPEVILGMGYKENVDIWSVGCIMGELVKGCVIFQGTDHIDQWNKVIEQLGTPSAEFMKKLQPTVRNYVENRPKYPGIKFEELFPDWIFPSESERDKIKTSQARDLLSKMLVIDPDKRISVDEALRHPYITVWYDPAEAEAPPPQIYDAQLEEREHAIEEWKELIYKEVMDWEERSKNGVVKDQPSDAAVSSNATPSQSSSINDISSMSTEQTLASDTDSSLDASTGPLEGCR
Sequence of JNK1 (P45983 whole entry): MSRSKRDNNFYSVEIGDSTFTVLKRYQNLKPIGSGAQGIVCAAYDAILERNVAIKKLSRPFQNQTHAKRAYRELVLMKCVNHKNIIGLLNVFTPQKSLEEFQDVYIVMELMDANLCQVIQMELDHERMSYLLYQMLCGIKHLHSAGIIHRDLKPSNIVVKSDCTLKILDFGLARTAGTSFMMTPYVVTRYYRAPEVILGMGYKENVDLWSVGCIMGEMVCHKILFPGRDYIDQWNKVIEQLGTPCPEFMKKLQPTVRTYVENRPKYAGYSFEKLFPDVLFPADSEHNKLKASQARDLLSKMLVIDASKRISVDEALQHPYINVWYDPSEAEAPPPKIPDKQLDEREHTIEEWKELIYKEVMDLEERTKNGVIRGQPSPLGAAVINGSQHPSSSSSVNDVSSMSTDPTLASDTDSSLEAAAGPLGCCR

| Compound | IC50 (JNK1) | IC50 (JNK2) | IC50 (JNK3) |
| --- | --- | --- | --- |
| COc1cccn2nc(-c3ccccc3)c(-c3ccnc(N[C@@H]4CN(C(=O)c5ccc(NC(=O)/C=C/CN(C)C)cc5)C[C@@H]4C)n3)c12 [I-32, (E)-4-(dimethylamino)-N-(4-((3S,4S)-3-((4-(4-methoxy-2-phenylpyrazolo[1,5-a]pyridin-3-yl)pyrimidin-2-yl)amino)-4-methylpyrrolidine-1-carbonyl)phenyl)but-2-enamide] | 1810 nM | 222 nM | > 3330 nM |
| CN(C)CCCC(=O)Nc1ccc(C(=O)N2CC[C@H](Nc3nccc(-c4c(-c5ccccc5)nn5ccccc45)n3)C2)cc1 [I-12, (S)-4-(dimethylamino)-N-(4-(3-((4-(2-phenylpyrazolo[1,5-a]pyridin-3-yl)pyrimidin-2-yl)amino)pyrrolidine-1-carbonyl)phenyl)butanamide] | 320 nM | 17.6 nM | 110 nM |
| Cc1ccc2c(-c3ccnc(N[C@H]4CCN(C(=O)c5ccc(NC(=O)/C=C/CN(C)C)cc5)C4)n3)c(-c3ccccc3)nn2c1 [I-24, (S,E)-4-(dimethylamino)-N-(4-(3-((4-(6-methyl-2-phenylpyrazolo[1,5-a]pyridin-3-yl)pyrimidin-2-yl)amino)pyrrolidine-1-carbonyl)phenyl)but-2-enamide] | 18.4 nM | 0.952 nM | 5.53 nM |
| CN(C)C/C=C/C(=O)Nc1ccc(C(=O)N2CC3CC(Nc4nccc(-c5c(-c6ccccc6)nn6ccccc56)n4)C2C3)cc1 (stereo not drawn) [I-17, (E)-4-(dimethylamino)-N-(4-(6-((4-(2-phenylpyrazolo[1,5-a]pyridin-3-yl)pyrimidin-2-yl)amino)-2-azabicyclo[2.2.1]heptane-2-carbonyl)phenyl)but-2-enamide] | > 10000 nM | 7890 nM | > 10000 nM |
| CN(C)C/C=C/C(=O)Nc1ccc(C(=O)N2CCC[C@H](Nc3nccc(-c4c(-c5ccccc5)nn5ccccc45)n3)C2)cc1 [I-1, (S,E)-4-(dimethylamino)-N-(4-(3-((4-(2-phenylpyrazolo[1,5-a]pyridin-3-yl)pyrimidin-2-yl)amino)piperidine-1-carbonyl)phenyl)but-2-enamide] | 44.7 nM | 3.65 nM | 2.36 nM |
| CN(C)CCCC(=O)Nc1ccc(C(=O)N2CCCC[C@@H](Nc3nccc(-c4c(-c5ccccc5)nn5ccccc45)n3)C2)cc1 [I-10, (R)-4-(dimethylamino)-N-(4-(3-((4-(2-phenylpyrazolo[1,5-a]pyridin-3-yl)pyrimidin-2-yl)amino)azepane-1-carbonyl)phenyl)butanamide] | 243 nM | 7.88 nM | 48.1 nM |
| CN(C)C/C=C/C(=O)Nc1ccc(C(=O)N2CCCC[C@H](Nc3nccc(-c4c(-c5ccccc5)nn5ccccc45)n3)C2)cc1 [I-13, (S,E)-4-(dimethylamino)-N-(4-(3-((4-(2-phenylpyrazolo[1,5-a]pyridin-3-yl)pyrimidin-2-yl)amino)azepane-1-carbonyl)phenyl)but-2-enamide] | 308 nM | 31 nM | 20 nM |
| Nc1ccc(C(=O)N2CCC[C@H](Nc3nccc(-c4c(-c5ccccc5)nn5ccccc45)n3)C2)cc1 [I-4, (S)-(4-aminophenyl)(3-((4-(2-phenylpyrazolo[1,5-a]pyridin-3-yl)pyrimidin-2-yl)amino)piperidin-1-yl)methanone] | 21.4 nM | 2.88 nM | 22.5 nM |
| CN(C)C/C=C/C(=O)Nc1ccc(NC(=O)N2CC[C@H](Nc3nccc(-c4c(-c5ccccc5)nn5ccccc45)n3)C2)cc1 [I-18, (S,E)-N-(4-(4-(dimethylamino)but-2-enamido)phenyl)-3-((4-(2-phenylpyrazolo[1,5-a]pyridin-3-yl)pyrimidin-2-yl)amino)pyrrolidine-1-carboxamide] | 99.3 nM | 12.4 nM | 15.7 nM |
| CN(C)C/C=C/C(=O)Nc1ccc(C(=O)N2CC[C@H](Nc3nccc(-c4c(-c5ccccc5)nn5ccccc45)n3)C2)cc1 [I-11, (S,E)-4-(dimethylamino)-N-(4-(3-((4-(2-phenylpyrazolo[1,5-a]pyridin-3-yl)pyrimidin-2-yl)amino)pyrrolidine-1-carbonyl)phenyl)but-2-enamide] | 152 nM | 4.91 nM | 51.4 nM |

Further compounds by falling IC50 (JNK1), results first:

| IC50 (JNK1) | IC50 (JNK2) | IC50 (JNK3) | Compound |
| --- | --- | --- | --- |
| 3360 nM | 585 nM | 359 nM | CN(C)C/C=C/C(=O)Nc1ccc(C(=O)N2CC[C@H](Nc3ncc(Cl)c(-c4c(-c5ccccc5)nn5ccccc45)n3)C2)cc1 [I-21, (S,E)-N-(4-(3-((5-chloro-4-(2-phenylpyrazolo[1,5-a]pyridin-3-yl)pyrimidin-2-yl)amino)pyrrolidine-1-carbonyl)phenyl)-4-(dimethylamino)but-2-enamide] |
| 2390 nM | 85.8 nM | 274 nM | Cc1ccc2c(-c3ccnc(N[C@@H]4CN(C(=O)c5ccc(NC(=O)/C=C/CN(C)C)cc5)C[C@@H]4C)n3)c(-c3ccccc3)nn2c1 [I-31, (E)-4-(dimethylamino)-N-(4-((3S,4S)-3-methyl-4-((4-(6-methyl-2-phenylpyrazolo[1,5-a]pyridin-3-yl)pyrimidin-2-yl)amino)pyrrolidine-1-carbonyl)phenyl)but-2-enamide] |
| 1140 nM | 142 nM | 396 nM | Cc1cccn2nc(-c3ccccc3)c(-c3ccnc(N[C@H]4CCN(C(=O)c5ccc(NC(=O)/C=C/CN(C)C)cc5)C4)n3)c12 [I-23, (S,E)-4-(dimethylamino)-N-(4-(3-((4-(4-methyl-2-phenylpyrazolo[1,5-a]pyridin-3-yl)pyrimidin-2-yl)amino)pyrrolidine-1-carbonyl)phenyl)but-2-enamide] |
| 569 nM | 24 nM | 15 nM | CN(C)C/C=C/C(=O)Nc1ccc(C(=O)N2CCC[C@@H](Nc3nccc(-c4c(-c5ccccc5)nn5ccccc45)n3)C2)cc1 [I-5, (R,E)-4-(dimethylamino)-N-(4-(3-((4-(2-phenylpyrazolo[1,5-a]pyridin-3-yl)pyrimidin-2-yl)amino)piperidine-1-carbonyl)phenyl)but-2-enamide] |
| 481 nM | 38.9 nM | 40.3 nM | CN(C)C/C=C/C(=O)Nc1ccc(C(=O)NC2CCCC(Nc3nccc(-c4c(-c5ccccc5)nn5ccccc45)n3)C2)cc1 (stereo not drawn) [I-15, (E)-4-(4-(dimethylamino)but-2-enamido)-N-(3-((4-(2-phenylpyrazolo[1,5-a]pyridin-3-yl)pyrimidin-2-yl)amino)cyclohexyl)benzamide] |
| 403 nM | 15.9 nM | 96.1 nM | CN(C)C/C=C/C(=O)Nc1ccc(C(=O)N2CCCC[C@@H](Nc3nccc(-c4c(-c5ccccc5)nn5ccccc45)n3)C2)cc1 [I-9, (R,E)-4-(dimethylamino)-N-(4-(3-((4-(2-phenylpyrazolo[1,5-a]pyridin-3-yl)pyrimidin-2-yl)amino)azepane-1-carbonyl)phenyl)but-2-enamide] |
| 314 nM | 29 nM | 252 nM | CN(C)CCCC(=O)Nc1ccc(C(=O)N2CCCC[C@H](Nc3nccc(-c4c(-c5ccccc5)nn5ccccc45)n3)C2)cc1 [I-14, (S)-4-(dimethylamino)-N-(4-(3-((4-(2-phenylpyrazolo[1,5-a]pyridin-3-yl)pyrimidin-2-yl)amino)azepane-1-carbonyl)phenyl)butanamide] |
| 90.7 nM | 3.92 nM | 18.3 nM | CN(C)C/C=C/C(=O)Nc1ccc(C(=O)N2CC[C@H](Nc3nccc(-c4c(-c5cccc(Cl)c5)nn5ccccc45)n3)C2)cc1 [I-25, (S,E)-N-(4-(3-((4-(2-(3-chlorophenyl)pyrazolo[1,5-a]pyridin-3-yl)pyrimidin-2-yl)amino)pyrrolidine-1-carbonyl)phenyl)-4-(dimethylamino)but-2-enamide] |
| 85 nM | 5.57 nM | 3.87 nM | CN(C)C/C=C/C(=O)Nc1ccc(C(=O)N2CC[C@H](Nc3nccc(-c4c(-c5ccc(F)cc5)nn5ccccc45)n3)C2)cc1 [I-22, (S,E)-4-(dimethylamino)-N-(4-(3-((4-(2-(4-fluorophenyl)pyrazolo[1,5-a]pyridin-3-yl)pyrimidin-2-yl)amino)pyrrolidine-1-carbonyl)phenyl)but-2-enamide] |
| 73.4 nM | 5.59 nM | 21.4 nM | CN(C)CCCC(=O)Nc1ccc(C(=O)N2CC[C@@H](Nc3nccc(-c4c(-c5ccccc5)nn5ccccc45)n3)C2)cc1 [I-8, (R)-4-(dimethylamino)-N-(4-(3-((4-(2-phenylpyrazolo[1,5-a]pyridin-3-yl)pyrimidin-2-yl)amino)pyrrolidine-1-carbonyl)phenyl)butanamide] |
| 64 nM | 11 nM | 20 nM | CN(C)CCCC(=O)Nc1ccc(C(=O)N2CCC[C@H](Nc3nccc(-c4c(-c5ccccc5)nn5ccccc45)n3)C2)cc1 [I-2, (S)-4-(dimethylamino)-N-(4-(3-((4-(2-phenylpyrazolo[1,5-a]pyridin-3-yl)pyrimidin-2-yl)amino)piperidine-1-carbonyl)phenyl)butanamide] |
| 37.6 nM | 6.94 nM | 10.9 nM | CN(C)C/C=C/C(=O)Nc1cccc(C(=O)N2CC[C@H](Nc3nccc(-c4c(-c5ccccc5)nn5ccccc45)n3)C2)c1 [I-16, (S,E)-4-(dimethylamino)-N-(3-(3-((4-(2-phenylpyrazolo[1,5-a]pyridin-3-yl)pyrimidin-2-yl)amino)pyrrolidine-1-carbonyl)phenyl)but-2-enamide] |
| 26 nM | 5.67 nM | 16.2 nM | C=CC(=O)Nc1ccc(C(=O)N2CCC[C@H](Nc3nccc(-c4c(-c5ccccc5)nn5ccccc45)n3)C2)cc1 [I-3, (S)-N-(4-(3-((4-(2-phenylpyrazolo[1,5-a]pyridin-3-yl)pyrimidin-2-yl)amino)piperidine-1-carbonyl)phenyl)acrylamide] |
| 8.9 nM | 67.6 nM | 10.3 nM | CN(C)C/C=C/C(=O)Nc1ccc(C(=O)N2CC[C@H](Nc3nccc(-c4c(-c5ccc(Cl)cc5)nn5ccccc45)n3)C2)cc1 [I-26, (S,E)-N-(4-(3-((4-(2-(4-chlorophenyl)pyrazolo[1,5-a]pyridin-3-yl)pyrimidin-2-yl)amino)pyrrolidine-1-carbonyl)phenyl)-4-(dimethylamino)but-2-enamide] |
